In data set [1] the test system is M. mycetomatis. The data set is described as follows: In vitro susceptibility, averages over M. mycetomatis isolates (average metabolic activity at 2 µM, mean MIC). Particulars: Madurella mycetomatis, 96 h, 4 days at 37°C, CellTiter-Glo, average of 3 isolates, 20% or below = inhibition. Format: cell-based. As to the method: M. mycetomatis isolate MM55 was used to screen the Oncode library. This strain was kindly provided by Prof. […] The three M. mycetomatis isolates were identified by ITS sequencing and maintained at −80°C at Erasmus MC. Prior to in vitro screening, isolates were cultured on Sabouraud agar plates (BD, Erembodegem, Belgium) at 37°C.
The Oncode Drug Repurposing library was based on the drug repurposing library from the Drug Repurposing Hub of the Broad Institute and recreated by the Oncode institute.[13] […] Each well of the 384-well plates contained 0.6 µL of a 200 µM stock concentration of compound, resulting in a final concentration of 2 µM when the fungus was added. […] Furthermore, this concentration could also be reached in the G. mellonella larvae.[8],[11] The prepared 384-well plates were transferred on dry ice to the Erasmus MC and stored at −80°C until they were screened.
Each plate also contained a growth control (60 µL of M. mycetomatis hyphal suspension, plus 0.6 µL of DMSO) and a negative control (60 µL of culture medium, plus 0.6 µL of DMSO). Plates were then incubated for 4 days at 37°C, after which 30 µL of CellTiter-Glo 3D Cell Viability reagent was added to every well.[19] After 25 min of incubation at room temperature, the luminescence was measured with a CytoFluor Series 4000 luminometer (PerSeptive Biosystems, Framingham, MA, USA). To determine the metabolic activity, the following formula was used:
Percentagemetabolicactivity=(Absorbancetestluminensence−AbsorbanceNCluminensence/AbsorbanceGCluminensence−AbsorbanceNCluminensence)×100
where, GC is growth control and NC is negative control. The luminescence measured for the GC is considered as 100% metabolic activity. The luminescence for the NC is considered as 0% metabolic activity.

Data set [2] deals with M. mycetomatis strain mm55. The data set is described as follows: IC50 and MIC determination, CellTiter-Glo, strain mm55. Format: cell-based, Madurella mycetomatis. The note with it: for IC50: concentration inhibiting 50% of fungal hyphae growth; for MIC: concentration with complete growth inhibition.
The test system of data set [3] is M. mycetomatis strain P1. The experiment in a line: IC50 and MIC determination, CellTiter-Glo, strain P1. Format: cell-based, Madurella mycetomatis.
Data set [4] concerns M. mycetomatis strain I1. The data set is described as follows: IC50 and MIC determination, CellTiter-Glo, strain I1. Format: cell-based, Madurella mycetomatis.
Data set [5] concerns healthy uninfected G. mellonella larvae. Particulars: for Toxicity in G. mellonella larvae at concentrations as low as 0.5 µM: tested at 20, 10, 5, 1 and 0.5 µM. As to the method:
(§1) For in vivo experiments, sixth-week instar G. mellonella larvae were purchased from Blue-Lagoon, Maassluis, The Netherlands. The larvae were raised and kept in the dark at room temperature. Larvae without any discoloration and weighing around 500 mg were selected for experiments.
To determine the toxicity, 15 healthy uninfected larvae were injected with 20 µL of 20 µM compound as previously described.[16] […] As a control, a separate group of larvae were injected with 20 µL of PBS. Larvae were housed in Petri dishes with Whatman paper at 37°C in the dark. Survival was monitored for 10 days.

For data set [6], the system named is M. mycetomatis MM55-infected G. mellonella larvae. The data set is described as follows: Therapeutic efficacy in M. mycetomatis-infected G. mellonella larvae (survival, log-rank). Format: in vivo, Galleria mellonella. As to the method:
as §1
The wet weight was determined and 10 mL of PBS per gram of mycelia was added. The suspension was then sonicated for 2 min to achieve a particle size of 10 µm. The fungal suspension (4 mg/40 µL) was injected into the last left pro-leg of a healthy G. mellonella larva with an insulin 29G U-100 needle to reach a final inoculum of 4 mg/larva. Larvae were placed in Petri dishes containing Whatman paper in a 37°C incubator.
A control group was also included in which M. mycetomatis-infected larvae were treated with PBS or with 1 mg/kg amphotericin B (Fungizone, Bristol Myers Squibb, Utrecht, The Netherlands). […] The treatment was repeated at 28 h post infection and 52 h post infection via different prolegs. The infection was monitored for 10 days.
To compare the survival rates between PBS treatment control and the different experimental groups a log-rank test was performed. All data were processed and performed in GraphPad Prism 10.

The subject of data set [7] is M. mycetomatis. The data set is described as follows: In vitro susceptibility, averages over M. mycetomatis isolates (average metabolic activity at 2 µM, mean MIC). Format: cell-based, Madurella mycetomatis. The note with it: for Average metabolic activity at 2 µM (%): 4 days at 37°C, CellTiter-Glo, average of 3 isolates, 20% or below = inhibition.
Where [8] appears, read: 20 µL of 20 µM at 4, 28 and 52 h post infection, 10 days.

≈ marks a conversion by molar mass, not a printed value. Counter-ions that a name gives are not always drawn. Like-named read-outs stand apart in the source and are kept apart here.

`Oc1c(I)cc(Cl)c2cccnc12` [Clioquinol] came in with an activity at 2 µM in data set [1] of 0%. Moreover, the IC50 in data set [2] (Madurella mycetomatis) is 1.2 µM; in data set [3] (Madurella mycetomatis, P1), 0.38 µM; in data set [4] (Madurella mycetomatis, I1) it was 1.7 µM. The MIC amounted to 2 µM (≈ 0.611 µg/mL) in data set [2] (Madurella mycetomatis); 0.5 µM (≈ 0.153 µg/mL) in data set [3] (Madurella mycetomatis, P1); 2 µM (≈ 0.611 µg/mL) in data set [4] (Madurella mycetomatis, I1). The “Toxicity in G. mellonella larvae at 20 µM” value (from here on “Toxicity … at 20 µM”) in data set [5] (in vivo) is recorded as “not toxic”. Moreover, the “Survival of M. mycetomatis-infected larvae versus PBS” value in data set [6] (setting [8]) is reported as “No prolonged survival”.

With `C[C@@H]1[C@H](O)[C@@H](C)/C=C/C=C/C=C/C=C/C=C/C=C/C=C/[C@H](O[C@@H]2O[C@H](C)[C@@H](O)[C@H](N)[C@@H]2O)C[C@@H]2O[C@](O)(C[C@@H](O)C[C@@H](O)[C@H](O)CC[C@@H](O)C[C@@H](O)CC(=O)O[C@H]1C)C[C@H](O)[C@H]2C(=O)O` [amphotericin B], the “Survival of M. mycetomatis-infected larvae versus PBS” value in data set [6] (1 mg/kg amphotericin B, infected treated control) is recorded as “prolonged the survival”.

`Oc1c(Br)cc(Br)c2cccnc12` [Broxyquinoline] came in with an activity at 2 µM in data set [1] of 3.3%. In addition, the IC50 was determined as 1.6 µM in data set [2] (Madurella mycetomatis); 0.56 µM in data set [3] (Madurella mycetomatis, P1); 1.29 µM in data set [4] (Madurella mycetomatis, I1). For the same compound, the MIC in data set [2] (Madurella mycetomatis) was 2 µM (≈ 0.606 µg/mL); in data set [3] (Madurella mycetomatis, P1) it was 2 µM (≈ 0.606 µg/mL); in data set [4] (Madurella mycetomatis, I1), 2 µM (≈ 0.606 µg/mL). Also, in data set [5] (in vivo), the “Toxicity … at 20 µM” value was “not toxic”. The “Survival of M. mycetomatis-infected larvae versus PBS” value in data set [6] (setting [8]) was “No prolonged survival”.

Take `CC(=O)[O][Hg][c]1ccccc1` [Phenylmercuric acetate]: the IC50 in data set [2] is 1.12 µM; in data set [3] (strain P1), < 0.03 µM; in data set [4] (strain I1), 0.45 µM. For the same compound, the MIC in data set [2] amounted to 2.00 µM; in data set [3] (strain P1), 0.03 µM; in data set [4] (strain I1), 0.50 µM. In addition, the “Toxicity in G. mellonella larvae at concentrations as low as 0.5 µM” value in data set [5] (10 day observation) is listed as “toxic”. In addition, in data set [7], the “Average metabolic activity at 2 µM (%)” value is reported as 2.0%.

For the compound `CCCCC(CC)CNC(=N)NC(=N)NCCCCCCNC(=N)NC(=N)NCC(CC)CCCC` (stereo not shown) [Alexidine dihydrochloride], in data set [1], the activity at 2 µM is 4.4%. In addition, the IC50 turned out to be 1.32 µM in data set [2] (Madurella mycetomatis); 1.78 µM in data set [3] (Madurella mycetomatis, P1); 0.8 µM in data set [4] (Madurella mycetomatis, I1). Further, the MIC is 2 µM in data set [2] (Madurella mycetomatis); > 2 µM in data set [3] (Madurella mycetomatis, P1); > 2 µM in data set [4] (Madurella mycetomatis, I1); > 2 µM in data set [7] (Madurella mycetomatis, mean/average over strains MM55, P1 and I1).

In data set [1], `Cc1ccc2c(Br)cc(Br)c(OC(=O)c3ccccc3)c2n1` [Broxaldine] had an activity at 2 µM of 4.8%. In addition, the IC50 was 1.25 µM in data set [2] (Madurella mycetomatis); 0.63 µM in data set [3] (Madurella mycetomatis, P1); 1.31 µM in data set [4] (Madurella mycetomatis, I1). Moreover, the MIC in data set [2] (Madurella mycetomatis) is 2 µM (≈ 0.842 µg/mL); in data set [3] (Madurella mycetomatis, P1) it was 1 µM (≈ 0.421 µg/mL); in data set [4] (Madurella mycetomatis, I1), 2 µM (≈ 0.842 µg/mL). In addition, the “Toxicity … at 20 µM” value in data set [5] (in vivo) is “not toxic”. In addition, the “Survival of M. mycetomatis-infected larvae versus PBS” value in data set [6] (setting [8]) was “No prolonged survival”.

Regarding Bleomycin, the IC50 in data set [2] is 0.21 µM; in data set [3] (strain P1), < 0.03 µM; in data set [4] (strain I1), 0.2 µM. Moreover, the MIC was 0.50 µM in data set [2], 0.03 µM in data set [3] (strain P1) and 0.25 µM in data set [4] (strain I1). Moreover, the “Toxicity in G. mellonella larvae at concentrations as low as 0.5 µM” value in data set [5] (10 day observation) is listed as “toxic”. Moreover, the “Average metabolic activity at 2 µM (%)” value in data set [7] was 1.6%.

In data set [1], `C/C(=N\NC(=S)N1CCC1)c1ccccn1` [nsc319726] returned an activity at 2 µM of 4.1%. Also, the IC50 stood at 1.61 µM in data set [2] (Madurella mycetomatis); 0.74 µM in data set [3] (Madurella mycetomatis, P1); 1.04 µM in data set [4] (Madurella mycetomatis, I1). Further, the minimal inhibitory concentration (MIC) is 2 µM (≈ 0.469 µg/mL) in data set [2] (Madurella mycetomatis); 2 µM (≈ 0.469 µg/mL) in data set [3] (Madurella mycetomatis, P1); 2 µM (≈ 0.469 µg/mL) in data set [4] (Madurella mycetomatis, I1). In addition, in data set [5] (20 µL of 20 µM injected, 10 day observation, toxic if more than 20% of larvae died), the “Toxicity … at 20 µM” value is recorded as “toxicity was noted”. Moreover, in data set [6] (20 µL of 10 µM at 4, 28 and 52 h post infection, 10 days), the “Survival of M. mycetomatis-infected larvae versus PBS” value is “No prolonged survival”.

The values are drawn from publication PMC12670160, “A drug-repurposing screen of FDA- and EMA-approved drugs identifies two NF-κB inhibitors active against eumycetoma” (Journal of Antimicrobial Chemotherapy, 2025).
